Data set [1] has as its target T1, Transient receptor potential cation channel subfamily V member 1 (Homo sapiens, UniProt Q8NER1). Briefly: Antagonist activity against human TRPV1 assessed as inhibition of capsaicin-induced calcium influx by FLIPR assay. It is filed as functional.
For a further data set, the species on record is Homo sapiens. The experiment in a line: Intrinsic clearance in human liver microsomes. It is filed as ADME, Microsome. For orientation: Liver microsomes are a subcellular fraction often used to study metabolism.
The next data set has as its target Cytochrome P450 2C9 (Homo sapiens, UniProt P11712). Briefly: Inhibition of cytochrome P450 2C9. It counts as ADME.
Data set [2] deals with Transient receptor potential cation channel subfamily V member 1 (Cavia porcellus) (UniProt Q6R5A3).
Transient receptor potential cation channel subfamily V member 1 (Cavia porcellus), sequence (Q6R5A3 whole entry): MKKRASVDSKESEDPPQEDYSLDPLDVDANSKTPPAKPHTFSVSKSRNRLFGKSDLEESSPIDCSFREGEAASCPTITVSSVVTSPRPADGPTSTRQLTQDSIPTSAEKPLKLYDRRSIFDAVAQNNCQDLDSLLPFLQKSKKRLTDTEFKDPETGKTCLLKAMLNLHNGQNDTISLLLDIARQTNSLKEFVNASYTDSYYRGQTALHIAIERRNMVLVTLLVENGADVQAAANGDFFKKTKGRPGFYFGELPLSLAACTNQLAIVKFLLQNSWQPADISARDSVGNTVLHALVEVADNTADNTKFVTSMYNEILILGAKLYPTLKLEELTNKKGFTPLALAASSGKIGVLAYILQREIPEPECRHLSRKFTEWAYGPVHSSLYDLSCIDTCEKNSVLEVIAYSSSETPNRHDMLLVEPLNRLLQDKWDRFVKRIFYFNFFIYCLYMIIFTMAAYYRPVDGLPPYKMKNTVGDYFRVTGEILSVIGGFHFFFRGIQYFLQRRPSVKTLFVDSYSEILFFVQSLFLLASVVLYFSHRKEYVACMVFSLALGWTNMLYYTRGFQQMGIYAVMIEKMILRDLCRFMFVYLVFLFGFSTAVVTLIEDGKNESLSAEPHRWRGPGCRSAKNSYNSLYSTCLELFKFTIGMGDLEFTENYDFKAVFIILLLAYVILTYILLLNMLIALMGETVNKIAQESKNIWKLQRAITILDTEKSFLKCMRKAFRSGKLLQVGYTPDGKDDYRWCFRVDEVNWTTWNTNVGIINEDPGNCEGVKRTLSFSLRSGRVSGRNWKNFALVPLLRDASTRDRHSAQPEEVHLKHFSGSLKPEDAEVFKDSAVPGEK
Description: Antagonist activity against guinea pig TRPV1 assessed as inhibition of capsaicin-induced calcium influx by FLIPR assay
A further data set addresses Cytochrome P450 3A4 (Homo sapiens, UniProt P08684). Briefly: Inhibition of cytochrome P450 3A4. It counts as ADME.
The next data set deals with Cytochrome P450 2D6 (Homo sapiens, UniProt P10635). The experiment in a line: Inhibition of cytochrome P450 2D6. It is filed as ADME.
Cytochrome P450 2D6, sequence (P10635 whole entry): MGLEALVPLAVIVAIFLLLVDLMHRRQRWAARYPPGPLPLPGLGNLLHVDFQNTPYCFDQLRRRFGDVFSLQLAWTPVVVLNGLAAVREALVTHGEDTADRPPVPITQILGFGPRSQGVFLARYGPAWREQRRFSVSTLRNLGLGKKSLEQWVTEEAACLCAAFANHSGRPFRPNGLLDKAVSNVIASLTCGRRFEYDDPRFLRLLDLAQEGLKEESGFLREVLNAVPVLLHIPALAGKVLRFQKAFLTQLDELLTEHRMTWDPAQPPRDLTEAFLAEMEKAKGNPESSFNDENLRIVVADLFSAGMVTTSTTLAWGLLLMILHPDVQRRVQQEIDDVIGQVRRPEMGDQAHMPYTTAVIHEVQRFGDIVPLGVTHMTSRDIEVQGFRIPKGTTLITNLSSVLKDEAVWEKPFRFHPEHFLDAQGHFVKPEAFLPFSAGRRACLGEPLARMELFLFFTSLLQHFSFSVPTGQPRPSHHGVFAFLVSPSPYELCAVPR
Data set [3] has as its target T1, Transient receptor potential cation channel subfamily V member 1. Briefly: Antagonist activity against human TRPV1 assessed as inhibition of acid-induced calcium influx by FLIPR assay. It counts as functional.
The target of data set [4] is Transient receptor potential cation channel subfamily V member 1 (Rattus norvegicus) (UniProt O35433).
Transient receptor potential cation channel subfamily V member 1 (Rattus norvegicus), sequence (O35433 whole entry): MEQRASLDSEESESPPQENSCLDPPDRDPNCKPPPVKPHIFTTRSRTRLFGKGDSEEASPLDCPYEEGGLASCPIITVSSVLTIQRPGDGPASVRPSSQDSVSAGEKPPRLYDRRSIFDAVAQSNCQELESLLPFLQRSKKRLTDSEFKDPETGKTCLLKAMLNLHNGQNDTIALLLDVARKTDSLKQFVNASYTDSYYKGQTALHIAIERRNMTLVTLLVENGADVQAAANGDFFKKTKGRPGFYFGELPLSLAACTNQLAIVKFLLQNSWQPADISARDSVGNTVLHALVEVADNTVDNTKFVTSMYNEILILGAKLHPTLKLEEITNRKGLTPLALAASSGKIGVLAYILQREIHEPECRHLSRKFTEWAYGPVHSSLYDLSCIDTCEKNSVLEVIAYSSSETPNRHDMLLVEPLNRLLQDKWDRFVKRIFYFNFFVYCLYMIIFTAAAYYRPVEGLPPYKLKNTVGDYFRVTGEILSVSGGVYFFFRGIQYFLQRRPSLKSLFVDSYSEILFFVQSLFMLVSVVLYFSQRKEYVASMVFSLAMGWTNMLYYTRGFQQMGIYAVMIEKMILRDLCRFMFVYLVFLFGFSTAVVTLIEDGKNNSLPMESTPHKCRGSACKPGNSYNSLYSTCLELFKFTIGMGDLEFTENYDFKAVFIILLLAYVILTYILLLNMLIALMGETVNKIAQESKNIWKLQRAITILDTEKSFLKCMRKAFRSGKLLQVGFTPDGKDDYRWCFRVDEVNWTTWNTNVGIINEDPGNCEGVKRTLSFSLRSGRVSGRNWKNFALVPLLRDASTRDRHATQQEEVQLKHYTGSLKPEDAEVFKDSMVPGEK
Description: Antagonist activity against rat TRPV1 assessed as inhibition of capsaicin-induced calcium influx by FLIPR assay
Another data set concerns the target Cytochrome P450 2C19 (Homo sapiens, UniProt P33261). The experiment in a line: Inhibition of cytochrome P450 2C19. It counts as ADME.
For the next data set, the system named is Cavia porcellus. Briefly: Inhibition of Freund's complete adjuvant-induced inflammatory hyperalgesia in guinea pig at 30 mg/kg, sc. It is filed as functional. As to conditions: route subcutaneous.
Data set [5] deals with Transient receptor potential cation channel subfamily V member 1 (Rattus norvegicus, UniProt O35433). Briefly: Antagonist activity against rat TRPV1 assessed as inhibition of acid-induced calcium influx by FLIPR assay. It counts as functional.
Transient receptor potential cation channel subfamily V member 1 (Rattus norvegicus, UniProt O35433), sequence (O35433 whole entry): as above
The target in another data set is T2, Cytochrome P450 1A2 (Homo sapiens, UniProt P05177).
T2 sequence (P05177 whole entry): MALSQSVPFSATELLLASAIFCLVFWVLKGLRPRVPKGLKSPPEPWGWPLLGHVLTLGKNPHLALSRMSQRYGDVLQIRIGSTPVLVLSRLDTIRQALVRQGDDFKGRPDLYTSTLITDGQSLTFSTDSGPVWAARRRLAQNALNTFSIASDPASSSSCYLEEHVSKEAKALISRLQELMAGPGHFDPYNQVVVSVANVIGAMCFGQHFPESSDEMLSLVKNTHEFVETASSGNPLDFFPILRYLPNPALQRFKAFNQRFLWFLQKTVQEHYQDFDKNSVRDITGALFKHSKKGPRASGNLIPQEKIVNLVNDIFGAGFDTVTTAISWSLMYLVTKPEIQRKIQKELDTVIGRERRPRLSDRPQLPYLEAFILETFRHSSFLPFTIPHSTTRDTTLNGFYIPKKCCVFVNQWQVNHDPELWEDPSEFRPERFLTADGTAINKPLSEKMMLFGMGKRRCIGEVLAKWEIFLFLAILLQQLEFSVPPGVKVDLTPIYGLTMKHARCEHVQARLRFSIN
Briefly: Inhibition of cytochrome P450 1A2. It is filed as ADME.

The source of these data is ChEMBL document CHEMBL1146870, “N-Tetrahydroquinolinyl, N-quinolinyl and N-isoquinolinyl biaryl carboxamides as antagonists of TRPV1” (Bioorg Med Chem Lett, 2006).

For orientation: pKb means the Kb on a negative log10 scale, so that one unit is a factor of ten. By IC50 is commonly meant the point on the concentration scale where inhibition reaches its midpoint. In general, inhibition in vivo refers to the change of the read-out against control, counted positive when it falls.

T1 sequence (Q8NER1 whole entry): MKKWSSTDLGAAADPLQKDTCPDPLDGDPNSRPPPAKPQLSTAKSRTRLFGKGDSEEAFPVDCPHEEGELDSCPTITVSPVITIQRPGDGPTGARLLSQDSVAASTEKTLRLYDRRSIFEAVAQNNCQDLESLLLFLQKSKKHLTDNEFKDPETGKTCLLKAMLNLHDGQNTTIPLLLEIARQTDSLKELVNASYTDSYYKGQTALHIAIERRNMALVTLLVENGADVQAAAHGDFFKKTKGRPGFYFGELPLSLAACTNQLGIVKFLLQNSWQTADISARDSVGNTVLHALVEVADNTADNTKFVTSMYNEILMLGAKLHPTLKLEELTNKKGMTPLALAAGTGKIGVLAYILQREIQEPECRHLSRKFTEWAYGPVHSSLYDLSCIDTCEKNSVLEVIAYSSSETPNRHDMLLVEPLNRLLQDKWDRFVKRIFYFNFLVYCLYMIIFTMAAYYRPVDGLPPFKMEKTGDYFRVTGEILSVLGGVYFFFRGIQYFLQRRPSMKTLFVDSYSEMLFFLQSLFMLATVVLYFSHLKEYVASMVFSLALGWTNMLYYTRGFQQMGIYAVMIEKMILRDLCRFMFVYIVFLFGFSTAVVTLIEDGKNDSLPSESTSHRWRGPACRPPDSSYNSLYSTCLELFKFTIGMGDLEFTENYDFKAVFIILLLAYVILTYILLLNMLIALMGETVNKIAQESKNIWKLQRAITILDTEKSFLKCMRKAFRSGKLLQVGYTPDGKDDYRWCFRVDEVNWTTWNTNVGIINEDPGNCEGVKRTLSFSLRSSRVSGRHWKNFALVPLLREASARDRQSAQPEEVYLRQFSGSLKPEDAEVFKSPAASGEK
Cytochrome P450 2C19, sequence (P33261 whole entry): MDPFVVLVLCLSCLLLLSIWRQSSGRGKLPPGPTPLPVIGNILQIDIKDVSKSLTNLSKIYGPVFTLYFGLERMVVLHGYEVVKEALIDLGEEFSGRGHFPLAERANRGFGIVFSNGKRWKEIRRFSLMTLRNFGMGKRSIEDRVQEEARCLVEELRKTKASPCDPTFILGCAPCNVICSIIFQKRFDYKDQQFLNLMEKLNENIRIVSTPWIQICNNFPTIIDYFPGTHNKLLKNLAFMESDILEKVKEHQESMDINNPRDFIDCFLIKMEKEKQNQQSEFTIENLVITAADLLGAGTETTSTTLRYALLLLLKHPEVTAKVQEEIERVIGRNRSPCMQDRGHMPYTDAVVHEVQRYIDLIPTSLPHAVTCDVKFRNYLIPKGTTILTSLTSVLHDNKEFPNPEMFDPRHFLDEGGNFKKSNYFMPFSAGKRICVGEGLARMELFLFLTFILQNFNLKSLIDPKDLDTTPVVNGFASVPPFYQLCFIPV
Cytochrome P450 2C9, sequence (P11712 whole entry): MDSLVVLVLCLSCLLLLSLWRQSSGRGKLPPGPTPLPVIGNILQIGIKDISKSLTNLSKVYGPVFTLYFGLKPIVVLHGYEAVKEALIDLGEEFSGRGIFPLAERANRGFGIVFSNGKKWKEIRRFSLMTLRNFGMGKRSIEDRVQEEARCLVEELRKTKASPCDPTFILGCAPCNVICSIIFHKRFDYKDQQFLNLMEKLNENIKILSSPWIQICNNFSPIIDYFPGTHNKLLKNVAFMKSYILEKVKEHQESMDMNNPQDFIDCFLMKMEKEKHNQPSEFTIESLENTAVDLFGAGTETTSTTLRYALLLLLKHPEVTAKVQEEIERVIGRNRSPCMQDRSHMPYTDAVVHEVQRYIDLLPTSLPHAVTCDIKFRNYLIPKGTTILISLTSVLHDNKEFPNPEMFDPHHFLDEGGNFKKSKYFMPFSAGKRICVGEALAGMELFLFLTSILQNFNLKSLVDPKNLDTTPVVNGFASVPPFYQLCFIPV
Cytochrome P450 3A4, sequence (P08684 whole entry): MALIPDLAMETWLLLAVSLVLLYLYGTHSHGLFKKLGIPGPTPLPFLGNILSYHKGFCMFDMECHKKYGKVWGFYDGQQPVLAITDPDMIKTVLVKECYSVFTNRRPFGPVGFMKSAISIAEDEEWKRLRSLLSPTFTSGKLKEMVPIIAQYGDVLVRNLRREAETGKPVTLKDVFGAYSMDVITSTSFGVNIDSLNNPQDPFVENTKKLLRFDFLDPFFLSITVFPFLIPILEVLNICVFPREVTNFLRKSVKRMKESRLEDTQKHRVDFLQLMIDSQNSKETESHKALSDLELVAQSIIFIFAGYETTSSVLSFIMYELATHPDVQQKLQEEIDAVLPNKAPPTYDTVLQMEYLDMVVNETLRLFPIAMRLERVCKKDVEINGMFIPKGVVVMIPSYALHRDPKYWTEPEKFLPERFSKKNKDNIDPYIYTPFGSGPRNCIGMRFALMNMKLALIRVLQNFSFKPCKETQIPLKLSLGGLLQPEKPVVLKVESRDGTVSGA

Take `CN1CCCc2ccc(NC(=O)c3ccccc3-c3ccccc3)cc21`: in [1], the pKb is under 6.6.

For the molecule `O=C(Nc1cccc2cccnc12)c1ccc(-c2ccccc2)cc1`, in data set [1], the pKb was under 6.5.

Turning to `CN1CCCc2cc(NC(=O)c3ccc(-c4ccccc4)cc3)ccc21`, the pKb in [1] was determined as 7.1.

As for `CN1CCCc2ccc(NC(=O)c3ccc(-c4ccsc4)cc3)cc21`, the pKb in data set [1] stood at 7.8.

Regarding `CN1CCCc2ccc(NC(=O)c3ccc(-c4ccccc4)s3)cc21`, the pKb in [1] stood at 7.

In the data set filed under Homo sapiens, `CN1CCCc2ccc(NC(=O)c3ccc(-c4ccccc4)nc3)cc21` gave a CL of 4 mL/min/g. Moreover, in data set [1], the pKb is 7.8.

Regarding `O=C(Nc1ccc2ccc(O)nc2c1)c1ccc(-c2ccccc2)cc1`, in data set [1], the pKb turned out to be 8.5.

With `COCC(=O)N1CCCc2ccc(NC(=O)c3ccc(-c4ccccc4)cc3)cc21`, in [1], the negative-log Kb (pKb) is 7.2.

`O=C(Nc1ccc2cccnc2c1)c1ccc(-c2ccccc2)nc1`: the IC50 against Cytochrome P450 2C9 was over 18 µM; on Cytochrome P450 3A4, over 18 µM; at Cytochrome P450 2D6, over 18 µM; in data set [3] it was 0.00794 µM; against Cytochrome P450 2C19 it was over 18 µM; in [5] it was 0.0251 µM. On Cytochrome P450 1A2, this molecule displayed an IC50 of over 18 µM. In addition, the pKb in [2] and in data set [4] was 8.4 in each case. For the same molecule, the CL in the data set filed under Homo sapiens is under 5 mL/min/g. For the same molecule, the inhibition in vivo at 30 mg/kg in the data set with Cavia porcellus amounted to 32%.

In the case of `Cc1ccc2ccc(NC(=O)c3ccc(-c4ccccc4)cc3)cc2n1`, the pKb in [1] worked out at 8.

As to `COc1cc(-c2ccccc2)ccc1C(=O)Nc1ccc2c(c1)N(C)CCC2`, the negative-log Kb (pKb) in data set [1] is under 6.8.

Take `O=C(Nc1ccc2ncccc2c1)c1ccc(-c2ccccc2)cc1`: the pKb in data set [1] was found to be 6.9.

Take `CC(=O)N1CCCc2ccc(NC(=O)c3ccc(-c4ccccc4)cc3)cc21`: the pKb in data set [1] stood at 7.2.

Regarding `CN1CCCc2ccc(NC(=O)c3ccc(-c4cncnc4)cc3)cc21`, the pKb in data set [1] was 6.9.

For the molecule `O=C(Nc1ccc2ccncc2c1)c1ccc(-c2ccccc2)cc1`, the pKb in data set [1] turned out to be 7.4.

For the molecule `CN(C)CCN1CCCc2ccc(NC(=O)c3ccc(-c4ccccc4)cc3)cc21`, the negative-log Kb (pKb) in data set [1] was 7.4.

As to `COCCN1CCCc2ccc(NC(=O)c3ccc(-c4ccccc4)cc3)cc21`, in [1], the pKb is 7.3.

In the case of `CC(=O)c1cccc(-c2ccc(C(=O)Nc3ccc4c(c3)N(C)CCC4)cc2)c1`, the negative logarithm of the Kb (pKb) in data set [1] amounted to 7.

As to `CN1CCCc2cccc(NC(=O)c3ccc(-c4ccccc4)cc3)c21`, the pKb in [1] was under 6.3.

Regarding `O=C(Nc1ccc2cnccc2c1)c1ccc(-c2ccccc2)cc1`, in data set [1], the pKb came to 7.7.

On to `O=C(Nc1ccc2c(c1)NCCC2)c1ccc(-c2ccccc2)cc1`, for which the negative-log Kb (pKb) in data set [1] was found to be 7.7.

As for `CN1CCCc2ccc(NC(=O)c3ccc(-n4cccn4)cc3)cc21`, the pKb in data set [1] came to 6.9.

As to `CN1CCCc2ccc(NC(=O)c3cnc(-c4ccccc4)cn3)cc21`, the negative logarithm of the Kb (pKb) in data set [1] is under 6.8.

`O=C(Nc1cccc2ncccc12)c1ccc(-c2ccccc2)cc1`: the pKb in data set [1] is under 6.5.

Consider `O=C(Nc1cccc2cnccc12)c1ccc(-c2ccccc2)cc1`, for which the negative logarithm of the Kb (pKb) in [1] was determined as 7.7.

In the case of `CN1CCCc2ccc(NC(=O)c3cccc(-c4ccccc4)c3)cc21`, the pKb in [1] is under 6.8.

With `CN1CCCc2ccc(NC(=O)c3ccc(-c4ccccc4)cc3Cl)cc21`, the pKb in data set [1] worked out at 7.1.

As for `CN1CCCc2c(NC(=O)c3ccc(-c4ccccc4)cc3)cccc21`, the pKb in [1] is under 6.5.

`CN1CCCc2ccc(NC(=O)c3ccc(-c4ccccc4)cc3)cc21` registered a CL in the data set listed under Homo sapiens of 7 mL/min/g. In [1], the pKb amounted to 7.5.

On to `CN1CCCc2ccc(NC(=O)c3ccc(-c4cccs4)cc3)cc21`, for which the negative logarithm of the Kb (pKb) in data set [1] was determined as 7.6.

With `CC(=O)NCCN1CCCc2ccc(NC(=O)c3ccc(-c4ccccc4)cc3)cc21`, the pKb in data set [1] amounted to 6.9.

For `CNS(=O)(=O)c1cccc(-c2ccc(C(=O)Nc3ccc4c(c3)N(C)CCC4)cc2)c1`, in data set [1], the negative-log Kb (pKb) stood at 7.

`O=C(Nc1ccc2cccnc2c1)c1ccc(-c2ccccc2)cc1`: in data set [1], the negative logarithm of the Kb (pKb) turned out to be 9.4.

In the case of `CN1CCCc2ccc(NC(=O)c3ccc(-c4cnccn4)cc3)cc21`, the pKb in data set [1] turned out to be 7.1.

With `Cc1cc(C(=O)Nc2ccc3c(c2)N(C)CCC3)ccc1-c1ccccc1`, the pKb in [1] came to 7.4.

`CN(C)C(=O)c1ccc(-c2ccc(C(=O)Nc3ccc4c(c3)N(C)CCC4)cc2)cc1`: the pKb in data set [1] was found to be 7.1.
